Test results from patent US9320737B2, “Substituted imidazopyridazines” (Bayer Intellectual Property GmbH, priority 2011, dated 2016).
Each block holds one molecule with its values, some of them ahead of it.

Molecular target: human full-length MKNK1 (Homo sapiens (Human), UniProt Q9BUB5, T344D)
Assay: MKNK1 kinase assay (MKNK1 TR-FRET assay)
Format: biochemical
Conditions: GST-MKNK1 (T344D), 10 μM ATP, average or median values
Protocol: MKNK1-inhibitory activity of compounds of the present invention was quantified employing the MKNK1 TR-FRET assay as described in the following paragraphs.
As substrate for the kinase reaction the biotinylated peptide biotin-Ahx-[…] (C-terminus in amide form) was used which can be purchased e.g. form the company Biosyntan (Berlin-Buch, Germany).
For the assay […] of a 100 fold concentrated solution of the test compound in DMSO was pipetted into a black low volume 384 well microtiter plate (Greiner Bio-One, Frickenhausen, Germany), 2 μL of a solution of MKNK1 in aqueous assay buffer [50 mM HEPES pH 7.5, 5 mM magnesium chloride, 1.0 mM dithiothreitol, 0.005% (v/v) Nonidet-P40 (Sigma)] was added and the mixture was incubated for 15 min at 22° C. to allow pre-binding of the test compounds to the enzyme before the start of the kinase reaction. Then the kinase reaction was started by the addition of 3 μL of a solution of adenosine-tri-phosphate (ATP, 16.7 μM=>final conc. in the 5 μL assay volume is 10 μM) and substrate (0.1 μM=>final conc. in the 5 μL assay volume is 0.06 μM) in assay buffer and the resulting mixture was incubated for a reaction time of 45 min at 22° C. The concentration of MKNK1 was adjusted depending of the activity of the enzyme lot and was chosen appropriate to have the assay in the linear range, typical concentrations were in the range of 0.05 μg/ml. The reaction was stopped by the addition of 5 μL of a solution of TR-FRET detection reagents (5 nM streptavidine-XL665 [Cisbio Bioassays, Codolet, France] and 1 nM anti-ribosomal protein S6 (pSer236)-antibody from Invitrogen [#44921G] and 1 nM LANCE EU-W1024 labeled ProteinG [Perkin-Elmer, product no. AD0071]) in an aqueous EDTA-solution (100 mM EDTA, 0.1% (w/v) bovine serum albumin in 50 mM HEPES pH 7.5).
The resulting mixture was incubated for 1 h at 22° C. to allow the formation of complex between the phosphorylated biotinylated peptide and the detection reagents. Subsequently the amount of phosphorylated substrate was evaluated by measurement of the resonance energy transfer from the Eu-chelate to the streptavidine-XL. Therefore, the fluorescence emissions at 620 nm and 665 nm after excitation at 350 nm were measured in a TR-FRET reader, e.g. a Rubystar (BMG Labtechnologies, Offenburg, Germany) or a Viewlux (Perkin-Elmer). The ratio of the emissions at 665 nm and at 622 nm was taken as the measure for the amount of phosphorylated substrate.

Sequence of human full-length MKNK1 (Q9BUB5 other isoform, or with tags, fused parts or gaps T344D): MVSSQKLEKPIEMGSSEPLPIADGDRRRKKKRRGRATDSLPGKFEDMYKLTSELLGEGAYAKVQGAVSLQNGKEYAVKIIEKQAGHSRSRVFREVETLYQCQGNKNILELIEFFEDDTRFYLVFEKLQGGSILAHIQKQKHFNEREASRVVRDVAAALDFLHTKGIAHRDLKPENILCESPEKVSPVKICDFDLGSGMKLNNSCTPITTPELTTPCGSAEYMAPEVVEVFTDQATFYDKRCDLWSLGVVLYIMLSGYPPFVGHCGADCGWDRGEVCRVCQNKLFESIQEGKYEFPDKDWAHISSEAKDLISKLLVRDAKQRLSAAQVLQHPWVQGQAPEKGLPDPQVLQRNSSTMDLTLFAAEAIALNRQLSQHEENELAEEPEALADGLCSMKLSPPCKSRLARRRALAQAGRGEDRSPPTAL

Compound: COc1cccc2oc(-c3cnc4ccc(OCCCSC)nn34)cc12 [Example I.1, 3-(4-Methoxy-1-benzofuran-2-yl)-6-[3-(methylsulfanyl)propoxy]imidazo[1,2-b]-pyridazine]
IC50: 21 nM

Compound: CSCCCCOc1ccc2ncc(-c3cc4ccccc4o3)n2n1 [Example I.3, 3-(1-Benzofuran-2-yl)-6-[4-(methylsulfanyl)butoxy]imidazo[1,2-b]pyridazine]
IC50: 27 nM

Compound: CSCCOc1ccc2ncc(-c3cc4ccccc4o3)n2n1 [Example I.4, 3-(1-Benzofuran-2-yl)-6-[2-(methylsulfanyl)ethoxy]imidazo[1,2-b]pyridazine]
IC50: 16 nM

Compound: C[S+]([O-])CCCCOc1ccc2ncc(-c3cc4ccccc4o3)n2n1 (stereo not shown) [Example II.3, 3-(1-Benzofuran-2-yl)-6-[4-(methylsulfinyl)butoxy]imidazo[1,2-b]pyridazine]
IC50: 5 nM

Compound: CS(=O)(=O)CCCOc1ccc2ncc(-c3cc4cc(Cl)ccc4o3)n2n1 [Example III.5, 3-(5-Chloro-1-benzofuran-2-yl)-6-[3-(methylsulfonyl)propoxy]imidazo[1,2-b]pyridazine]
IC50: 15 nM

Compound: CS(=O)(=O)CCCOc1ccc2ncc(-c3cc4cccc(F)c4o3)n2n1 [Example III.6, 3-(7-Fluoro-1-benzofuran-2-yl)-6-[3-(methylsulfonyl)propoxy]imidazo[1,2-b]pyridazine]
IC50: 48 nM

Compound: Cc1c(-c2cnc3ccc(OCCCS(C)(=O)=O)nn23)oc2ccccc12 [Example III.7, 3-(3-Methyl-1-benzofuran-2-yl)-6-[3-(methylsulfonyl)propoxy]imidazo[1,2-b]pyridazine]
IC50: 61 nM

Compound: Cc1cccc2cc(-c3cnc4ccc(OCCCS(C)(=O)=O)nn34)oc12 [Example III.8, 3-(7-Methyl-1-benzofuran-2-yl)-6-[3-(methylsulfonyl)propoxy]imidazo[1,2-b]pyridazine]
IC50: 70 nM

Compound: CS(=O)(=O)CCCOc1ccc2ncc(-c3cc4c(F)cccc4o3)n2n1 [Example III.9, 3-(4-Fluoro-1-benzofuran-2-yl)-6-[3-(methylsulfonyl)propoxy]imidazo[1,2-b]pyridazine]
IC50: 17 nM

Compound: CS(=O)(=O)CCCOc1nn2c(-c3cc4ccccc4o3)cnc2cc1-c1ccccc1 [Example III.11, 3-(1-Benzofuran-2-yl)-6-[3-(methylsulfonyl)propoxy]-7-phenylimidazo[1,2-b]-pyridazine]
IC50: 17 nM

Compound: CS(=O)(=O)CCCOc1ccc2ncc(-c3cc4ncccc4o3)n2n1 [Example III.14, 3-(Furo[3,2-b]pyridin-2-yl)-6-[3-(methylsulfonyl)propoxy]imidazo[1,2-b]pyridazine]
IC50: 60 nM

Compound: CS(=O)(CCCCOc1ccc2ncc(-c3cc4ccccc4o3)n2n1)=NC(=O)C(F)(F)F (stereo not shown) [Example IV.5, N-[(4-{[3-(1-Benzofuran-2-yl)imidazo[1,2-b]pyridazin-6-yl]oxy}butyl)(methyl)oxido-lambda^6-sulfanylidene]-2,2,2-trifluoroacetamide]
IC50: 15 nM

Compound: CS(=O)(CCOc1ccc2ncc(-c3cc4ccccc4o3)n2n1)=NC(=O)C(F)(F)F (stereo not shown) [Example IV.7, N-[(2-{[3-(1-Benzofuran-2-yl)imidazo[1,2-b]pyridazin-6-yl]oxy}ethyl)(methyl)oxido-lambda^6-sulfanylidene]-2,2,2-trifluoroacetamide]
IC50: 47 nM

Compound: CS(=O)(=O)CCCOc1ccc2ncc(-c3cc4cnccc4o3)n2n1 [III.13, 3-(Furo[3,2-c]pyridin-2-yl)-6-[3-(methylsulfonyl)propoxy]imidazo[1,2-b]-pyridazine]
IC50: 28 nM

The remaining molecules from weak to strong by IC50, led by results:

IC50: 12 nM
Compound: COc1nccc2oc(-c3cnc4ccc(OCCCS(C)(=O)=O)nn34)cc12 [Example III.12, 3-(4-Methoxyfuro[3,2-c]pyridin-2-yl)-6-[3-(methylsulfonyl)propoxy]-imidazo-[1,2-b]pyridazine]

IC50: 11 nM
Compound: CSCCCOc1ccc2ncc(-c3cc4ccccc4o3)n2n1 [Example I.2, 3-(1-Benzofuran-2-yl)-6-[3-(methylsulfanyl)propoxy]imidazo[1,2-b]pyridazine]

IC50: 11 nM
Compound: Cc1cc2ncc(-c3cc4ccccc4o3)n2nc1OCCCS(C)(=O)=O [Example III.10, 3-(1-Benzofuran-2-yl)-7-methyl-6-[3-(methylsulfonyl)propoxy]imidazo[1,2-b]-pyridazine]

IC50: 9 nM
Compound: COc1cccc2oc(-c3cnc4ccc(OCCCS(C)(=O)=NC(=O)C(F)(F)F)nn34)cc12 (stereo not shown) [Example IV.1, 2,2,2-Trifluoro-N-[(3-{[3-(4-methoxy-1-benzofuran-2-yl)imidazo[1,2-b]pyridazin-6-yl]oxy}propyl)(methyl)oxido-lambda^6-sulfanylidene]acetamide]

IC50: 9 nM
Compound: COc1nccc2oc(-c3cnc4ccc(OCCCS(C)(=O)=NC#N)nn34)cc12 (stereo not shown) [Example IV.9, [(3-{[3-(4-Methoxyfuro[3,2-c]pyridin-2-yl)imidazo[1,2-b]pyridazin-6-yl]oxy}propyl)(methyl)oxido-lambda^6-sulfanylidene]cyanamide]

IC50: 9 nM
Compound: COc1nccc2oc(-c3cnc4ccc(OCCCS(C)(=N)=O)nn34)cc12 (stereo not shown) [Example IV.10, 3-(4-Methoxyfuro[3,2-c]pyridin-2-yl)-6-[3-(S-methylsulfonimidoyl)propoxy]-imidazo[1,2-b]pyridazine]

IC50: 7 nM
Compound: CS(=O)(=O)CCCOc1ccc2ncc(-c3cc4cc(F)ccc4o3)n2n1 [Example III.4, 3-(5-Fluoro-1-benzofuran-2-yl)-6-[3-(methylsulfonyl)propoxy]imidazo[1,2-b]pyridazine]

IC50: 7 nM
Compound: CS(=O)(CCCOc1ccc2ncc(-c3cc4ccccc4o3)n2n1)=NC#N (stereo not shown) [Example IV.8, [(3-{[3-(1-Benzofuran-2-yl)imidazo[1,2-b]pyridazin-6-yl]oxy}propyl)(methyl)oxido-lambda^6-sulfanylidene]cyanamide]

IC50: 5 nM
Compound: CS(=O)(=O)CCCOc1ccc2ncc(-c3cc4ccccc4o3)n2n1 [Example III.1, 3-(1-Benzofuran-2-yl)-6-[3-(methylsulfonyl)propoxy]imidazo[1,2-b]pyridazine]

IC50: 5 nM
Compound: COc1ccc2oc(-c3cnc4ccc(OCCCS(C)(=O)=O)nn34)cc2c1 [Example III.2, 3-(5-Methoxy-1-benzofuran-2-yl)-6-[3-(methylsulfonyl)propoxy]imidazo[1,2-b]pyridazine]

IC50: 4 nM
Compound: C[S+]([O-])CCCOc1ccc2ncc(-c3cc4ccccc4o3)n2n1 (stereo not shown) [Example II.2, 3-(1-Benzofuran-2-yl)-6-[3-(methylsulfinyl)propoxy]imidazo[1,2-b]pyridazine]

IC50: 4 nM
Compound: CS(=N)(=O)CCCOc1ccc2ncc(-c3cc4ccccc4o3)n2n1 (stereo not shown) [Example IV.4, 3-(1-Benzofuran-2-yl)-6-[3-(S-methylsulfonimidoyl)propoxy]imidazo[1,2-b]pyridazine]

IC50: 2 nM
Compound: COc1cccc2oc(-c3cnc4ccc(OCCC[S+](C)[O-])nn34)cc12 (stereo not shown) [Example II.1, 3-(4-Methoxy-1-benzofuran-2-yl)-6-[3-(methylsulfinyl)propoxy]imidazo[1,2-b]pyridazine]

IC50: 2 nM
Compound: COc1cccc2oc(-c3cnc4ccc(OCCCS(C)(=O)=O)nn34)cc12 [Example III.3, 3-(4-Methoxy-1-benzofuran-2-yl)-6-[3-(methylsulfonyl)propoxy]imidazo[1,2-b]pyridazine]
